Starred links: 1 amine or outer side, 2 acyl side, 3 side chain; linkers in the order of their positions; H or OH if unused. Positions of bridges follow the written chain, without caps; N, C: chain ends. Non-standard residues stand in square brackets, D forms with d. Residues, ends and D or L forms follow the SMILES beside them. Groups on a side chain read outwards from the residue. *: point of attachment. Trp(1-Me) = Cn1cc(C[C@H](N)C(=O)O)c2ccccc21; C18 diacid = O=C(O)CCCCCCCCCCCCCCCCC(=O)*; C16 diacid = O=C(O)CCCCCCCCCCCCCCC(=O)*; γGlu = O=C(O)[C@H](CCC(=O)[*:2])N[*:1]; AEEA = NCCOCCOCC(=O)O; Sar = CNCC(=O)O

For one assay, the system named is classical complement pathway. Kind of assay: In vitro haemolysis assay (inhibition of classical complement pathway). The format is cell-based, human. The settings on record: human serum, sensitized sheep red blood cells; Table 3, given as upper bounds; read-out: IC50, inhibition of hemolysis. In a few lines:
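Compound dilutions preincubated 15 min at room temperature with diluted human serum (titrated per batch for 70-90% maximal haemolysis), then antibody-sensitized sheep RBC (10^7/well) added for 30 min at 37 °C in Tris/casein buffer, pH 7.4. Stopped with EDTA; haemolysis read at 405 nm; IC50 by 4PL fit.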
In general, IC50 refers to the concentration that inhibits the measured activity by half. Regarding `CC[C@H](C)[C@@H]1NC(=O)[C@@H](NC(=O)[C@H](Cc2ccccc2)NC(=O)[C@H](CCC(=O)O)NC(=O)[C@H](CO)NC(C)=O)CSSC[C@@H](C(=O)N(C)CC(=O)N[C@@H](CCC(=O)O)C(=O)NCC(=O)N[C@@H](CCC(=O)O)C(=O)NCCOCCOCC(=O)NCCOCCOCC(=O)NCCOCCOCC(=O)N[C@@H](CCCCNC(=O)CC[C@H](NC(=O)CNC(=O)CC[C@H](NC(=O)CCCCCCCCCCCCCCCCC(=O)O)C(=O)O)C(=O)O)C(N)=O)NC(=O)[C@H](CCCNC(=N)N)NC(=O)[C@H](Cc2c[nH]cn2)NC(=O)[C@H](CCC(=O)O)NC(=O)CNC(=O)[C@H](Cc2c[nH]c3ccccc23)NC(=O)[C@H](CC(=O)O)NC(=O)[C@H](CCC(N)=O)NC(=O)[C@H](Cc2cn(C)c3ccccc23)NC1=O` [Compound 143] (Ac-SEFCI[Trp(1-Me)]QDWGEHRC[Sar]EGE[AEEA][AEEA][AEEA]K([γGlu-Gly-γGlu-C18 diacid])-NH2; disulfide 4-14), the IC50 was < 100 nM.

As to `CC[C@H](C)[C@@H]1NC(=O)[C@@H](NC(=O)[C@@H](NC(=O)[C@H](CCCCN)NC(=O)[C@H](CCC(=O)O)NC(=O)[C@H](CCCCN)NC(C)=O)[C@@H](C)CC)CSSC[C@@H](C(=O)N[C@H](C(=O)N[C@@H](CCC(=O)O)C(=O)N[C@@H](CCCCN)C(=O)N[C@@H](CCC(=O)O)C(N)=O)[C@@H](C)O)NC(=O)[C@H](CCCNC(=N)N)NC(=O)[C@H](Cc2c[nH]cn2)NC(=O)[C@H](CCC(=O)O)NC(=O)CNC(=O)[C@H](Cc2c[nH]c3ccccc23)NC(=O)[C@H](CC(=O)O)NC(=O)[C@H](CCC(N)=O)NC(=O)[C@H](Cc2c[nH]c3ccccc23)NC1=O` [Compound 37] (Ac-KEKICIWQDWGEHRCTEKE-NH2; disulfide 5-15), the half-inhibitory concentration (IC50) was < 250 nM.

Consider `CC[C@H](C)[C@@H]1NC(=O)[C@@H](NC(=O)[C@H](Cc2ccccc2)NC(=O)[C@H](CCC(=O)O)NC(=O)[C@H](CO)NC(C)=O)CSSC[C@@H](C(=O)N[C@H](C(=O)N[C@@H](CCC(=O)O)C(=O)NCC(=O)N[C@@H](CCC(=O)O)C(=O)NCC(=O)NCC(=O)NCC(=O)N[C@@H](CCCCNC(=O)CC[C@H](NC(=O)CNC(=O)CC[C@H](NC(=O)CCCCCCCCCCCCCCC(=O)O)C(=O)O)C(=O)O)C(N)=O)[C@@H](C)O)NC(=O)[C@H](CCCNC(=N)N)NC(=O)[C@H](Cc2c[nH]cn2)NC(=O)[C@H](CCC(=O)O)NC(=O)CNC(=O)[C@H](Cc2c[nH]c3ccccc23)NC(=O)[C@H](CC(=O)O)NC(=O)[C@H](CCC(N)=O)NC(=O)[C@H](Cc2cn(C)c3ccccc23)NC1=O` [Compound 131] (Ac-SEFCI[Trp(1-Me)]QDWGEHRCTEGEGGGK([γGlu-Gly-γGlu-C16 diacid])-NH2; disulfide 4-14), for which the IC50 was < 100 nM.

Take `CC[C@H](C)[C@@H]1NC(=O)[C@@H](NC(=O)[C@H](Cc2ccccc2)NC(=O)[C@H](CCC(=O)O)NC(C)=O)CSSC[C@@H](C(=O)N[C@@H](CCC(=O)O)C(=O)N[C@@H](CO)C(N)=O)NC(=O)[C@H](CCCNC(=N)N)NC(=O)[C@H](Cc2c[nH]cn2)NC(=O)[C@H](CCC(=O)O)NC(=O)CNC(=O)[C@H](Cc2c[nH]c3ccccc23)NC(=O)[C@H](CC(=O)O)NC(=O)[C@H](CCC(N)=O)NC(=O)[C@H](Cc2cn(C)c3ccccc23)NC1=O` [Compound 85] (Ac-EFCI[Trp(1-Me)]QDWGEHRCES-NH2; disulfide 3-13): the IC50 was < 100 nM.

With `CC[C@H](C)[C@@H]1NC(=O)[C@@H](NC(=O)[C@H](Cc2ccc(O)cc2)NC(=O)[C@H](CCC(=O)O)NC(=O)[C@H](CO)NC(C)=O)CSSC[C@@H](C(=O)N(C)CC(=O)N[C@@H](CCC(=O)O)C(=O)N[C@@H](CCCCN)C(=O)N[C@@H](CCC(=O)N[C@@H](C)C(=O)N[C@@H](CCCCNC(=O)COCCOCCNC(=O)CC[C@H](NC(=O)COCCOCCNC(=O)CNC(=O)CC[C@H](NC(=O)CCCCCCCCCCCCCCCCC(=O)O)C(=O)O)C(=O)O)C(N)=O)C(=O)O)NC(=O)[C@H](CCCNC(=N)N)NC(=O)[C@H](Cc2c[nH]cn2)NC(=O)[C@H](CCC(=O)O)NC(=O)CN(C)C(=O)[C@H](Cc2c[nH]c3ccccc23)NC(=O)[C@H](CCC(=O)O)NC(=O)[C@H](CCC(N)=O)NC(=O)[C@H](Cc2cn(C)c3ccccc23)NC1=O` [Compound 121, Ac-SEYC(1)I[1-Me-Trp]QEW[Sar]EHRC(1)[Sar]EK[γGlu]A-K([17-carboxy-heptadecanoyl][γGlu]G[Peg3][γGlu][Peg3])-NH2] (Ac-SEYCI[Trp(1-Me)]QEW[Sar]EHRC[Sar]EK[γGlu]AK([AEEA-γGlu-AEEA-Gly-γGlu-C18 diacid])-NH2; disulfide 4-14), the IC50 was < 250 nM.

Consider `CC[C@H](C)[C@H](NC(C)=O)C(=O)N[C@H]1CSSC[C@@H](C(=O)N[C@H](C(=O)N[C@@H](CCC(=O)O)C(=O)NCC(=O)N[C@@H](CCC(=O)O)C(=O)N[C@@H](CCCCNC(=O)COCCOCCNC(=O)COCCOCCNC(=O)CC[C@H](NC(=O)CCCCCCCCCCCCCCCCC(=O)O)C(=O)O)C(N)=O)[C@@H](C)O)NC(=O)[C@H](CCCNC(=N)N)NC(=O)[C@H](Cc2c[nH]cn2)NC(=O)[C@H](CCC(=O)O)NC(=O)CNC(=O)[C@H](Cc2c[nH]c3ccccc23)NC(=O)[C@H](CC(=O)O)NC(=O)[C@H](CCC(N)=O)NC(=O)[C@H](Cc2c[nH]c3ccccc23)NC(=O)[C@H]([C@@H](C)CC)NC1=O` [Compound 97] (Ac-ICIWQDWGEHRCTEGEK([AEEA-AEEA-γGlu-C18 diacid])-NH2; disulfide 2-12), for which the IC50 is < 250 nM.

Regarding `CC[C@H](C)[C@@H]1NC(=O)[C@@H](NC(=O)[C@H](Cc2ccccc2)NC(=O)[C@H](C)NC(=O)[C@H](CO)NC(=O)CNC(=O)[C@H](CCC(=O)O)NC(C)=O)CSSC[C@@H](C(=O)N[C@@H](CCC(=O)O)C(=O)NCC(=O)N[C@@H](CCC(=O)O)C(N)=O)NC(=O)[C@H](CCCNC(=N)N)NC(=O)[C@H](Cc2c[nH]cn2)NC(=O)[C@H](CCC(=O)O)NC(=O)CNC(=O)[C@H](Cc2c[nH]c3ccccc23)NC(=O)[C@H](CC(=O)O)NC(=O)[C@H](CCC(N)=O)NC(=O)[C@H](Cc2cn(C)c3ccccc23)NC1=O` [Compound 58] (Ac-EGSAFCI[Trp(1-Me)]QDWGEHRCEGE-NH2; disulfide 6-16), the IC50 was < 100 nM.

`CC[C@H](C)[C@H](NC(C)=O)C(=O)N[C@H]1CSSC[C@@H](C(=O)N[C@H](C(N)=O)[C@@H](C)O)NC(=O)[C@H](CCCNC(=N)N)NC(=O)[C@H](Cc2c[nH]cn2)NC(=O)[C@H](CCCCN)NC(=O)CNC(=O)[C@H](Cc2c[nH]c3ccccc23)NC(=O)[C@H](CC(=O)O)NC(=O)[C@H](CCC(N)=O)NC(=O)[C@H](Cc2c[nH]c3ccccc23)NC(=O)[C@H]([C@@H](C)CC)NC1=O` [Compound 5] (Ac-ICIWQDWGKHRCT-NH2; disulfide 2-12): the IC50 was < 250 nM.

In the case of `CC[C@H](C)[C@@H]1NC(=O)[C@@H](NC(=O)[C@H](Cc2ccccc2)NC(=O)[C@H](CCC(=O)O)NC(=O)CNC(C)=O)CSSC[C@@H](C(=O)N(C)CC(=O)N[C@@H](CCC(=O)O)C(=O)N[C@@H](C)C(N)=O)NC(=O)[C@H](CCCNC(=N)N)NC(=O)[C@H](Cc2c[nH]cn2)NC(=O)[C@H](CCC(=O)O)NC(=O)CNC(=O)[C@H](Cc2c[nH]c3ccccc23)NC(=O)[C@H](CC(=O)O)NC(=O)[C@H](CCC(N)=O)NC(=O)[C@H](Cc2cn(C)c3ccccc23)NC1=O` [Compound 87] (Ac-GEFCI[Trp(1-Me)]QDWGEHRC[Sar]EA-NH2; disulfide 4-14), the IC50 is < 100 nM.

The same assay, now with this note: human serum, sensitized sheep red blood cells; Table 4, valine 3 vs isoleucine 3 pairs; read-out: CP hemolysis IC50.
In the case of `CC[C@H](C)[C@H](NC(C)=O)C(=O)N[C@H]1CSSC[C@@H](C(=O)N[C@H](C(N)=O)[C@@H](C)O)NC(=O)[C@H](CO)NC(=O)[C@H](Cc2c[nH]cn2)NC(=O)[C@H](CCC(=O)O)NC(=O)CNC(=O)[C@H](Cc2c[nH]c3ccccc23)NC(=O)[C@H](CC(=O)O)NC(=O)[C@H](CCC(N)=O)NC(=O)[C@H](Cc2c[nH]c3ccccc23)NC(=O)[C@H](C(C)C)NC1=O` [F, reference compound] (Ac-ICVWQDWGEHSCT-NH2; disulfide 2-12), the concentration for half-maximal inhibition (IC50) amounted to 540 nM.

In the case of `CC[C@H](C)[C@H](NC(C)=O)C(=O)N[C@H]1CSSC[C@@H](C(=O)N[C@H](C(N)=O)[C@@H](C)O)NC(=O)[C@H](CO)NC(=O)[C@H](Cc2c[nH]cn2)NC(=O)[C@H](C)NC(=O)CNC(=O)[C@H](Cc2c[nH]c3ccccc23)NC(=O)[C@H](CC(=O)O)NC(=O)[C@H](CCC(N)=O)NC(=O)[C@H](Cc2c[nH]c3ccccc23)NC(=O)[C@H](C(C)C)NC1=O` [E, reference compound] (Ac-ICVWQDWGAHSCT-NH2; disulfide 2-12), the IC50 is > 1000 nM.

Turning to `CC[C@H](C)[C@H](NC(=O)[C@H](C)NC(=O)[C@H](CO)NC(=O)CNC(=O)[C@H](CCC(=O)O)NC(C)=O)C(=O)N[C@H]1CSSC[C@@H](C(=O)N(C)CC(=O)N[C@@H](CCC(=O)O)C(N)=O)NC(=O)[C@H](CCCNC(=N)N)NC(=O)[C@H](Cc2c[nH]cn2)NC(=O)[C@H](CCC(=O)O)NC(=O)CNC(=O)[C@H](Cc2c[nH]c3ccccc23)NC(=O)[C@H](CC(=O)O)NC(=O)[C@H](CCC(N)=O)NC(=O)[C@H](Cc2c[nH]c3ccccc23)NC(=O)[C@H](C(C)C)NC1=O` [H, reference compound] (Ac-EGSAICVWQDWGEHRC[Sar]E-NH2; disulfide 6-16), the IC50 is 330 nM.

`CC[C@H](C)[C@H](NC(=O)[C@H](C)NC(=O)[C@H](CO)NC(=O)[C@H](CO)NC(=O)[C@H](CCC(=O)O)NC(C)=O)C(=O)N[C@H]1CSSC[C@@H](C(=O)N[C@H](C(N)=O)[C@@H](C)O)NC(=O)[C@H](CCCNC(=N)N)NC(=O)[C@H](Cc2c[nH]cn2)NC(=O)[C@H](CCC(=O)O)NC(=O)CNC(=O)[C@H](Cc2c[nH]c3ccccc23)NC(=O)[C@H](CC(=O)O)NC(=O)[C@H](CCC(N)=O)NC(=O)[C@H](Cc2c[nH]c3ccccc23)NC(=O)[C@H](C(C)C)NC1=O` [C, reference compound] (Ac-ESSAICVWQDWGEHRCT-NH2; disulfide 6-16): the IC50 came to 300 nM.
